# Biological target: T1, Nav1.7 (or SCN9A) channel; HEK cells stably transfected with hSCN9A (Homo sapiens, UniProt Q15858)
# T1 construct: expressed in transfected cells
# Assay: Nav1.7 block, PatchXpress 7000 automated whole-cell voltage clamp, estimated IC50 (EIC50)
# Type: cell-based
# Details: PatchXpress platform; hSCN9A HEK cells held at V1/2 of inactivation; estimated IC50
# T1 sequence (Q15858 whole entry): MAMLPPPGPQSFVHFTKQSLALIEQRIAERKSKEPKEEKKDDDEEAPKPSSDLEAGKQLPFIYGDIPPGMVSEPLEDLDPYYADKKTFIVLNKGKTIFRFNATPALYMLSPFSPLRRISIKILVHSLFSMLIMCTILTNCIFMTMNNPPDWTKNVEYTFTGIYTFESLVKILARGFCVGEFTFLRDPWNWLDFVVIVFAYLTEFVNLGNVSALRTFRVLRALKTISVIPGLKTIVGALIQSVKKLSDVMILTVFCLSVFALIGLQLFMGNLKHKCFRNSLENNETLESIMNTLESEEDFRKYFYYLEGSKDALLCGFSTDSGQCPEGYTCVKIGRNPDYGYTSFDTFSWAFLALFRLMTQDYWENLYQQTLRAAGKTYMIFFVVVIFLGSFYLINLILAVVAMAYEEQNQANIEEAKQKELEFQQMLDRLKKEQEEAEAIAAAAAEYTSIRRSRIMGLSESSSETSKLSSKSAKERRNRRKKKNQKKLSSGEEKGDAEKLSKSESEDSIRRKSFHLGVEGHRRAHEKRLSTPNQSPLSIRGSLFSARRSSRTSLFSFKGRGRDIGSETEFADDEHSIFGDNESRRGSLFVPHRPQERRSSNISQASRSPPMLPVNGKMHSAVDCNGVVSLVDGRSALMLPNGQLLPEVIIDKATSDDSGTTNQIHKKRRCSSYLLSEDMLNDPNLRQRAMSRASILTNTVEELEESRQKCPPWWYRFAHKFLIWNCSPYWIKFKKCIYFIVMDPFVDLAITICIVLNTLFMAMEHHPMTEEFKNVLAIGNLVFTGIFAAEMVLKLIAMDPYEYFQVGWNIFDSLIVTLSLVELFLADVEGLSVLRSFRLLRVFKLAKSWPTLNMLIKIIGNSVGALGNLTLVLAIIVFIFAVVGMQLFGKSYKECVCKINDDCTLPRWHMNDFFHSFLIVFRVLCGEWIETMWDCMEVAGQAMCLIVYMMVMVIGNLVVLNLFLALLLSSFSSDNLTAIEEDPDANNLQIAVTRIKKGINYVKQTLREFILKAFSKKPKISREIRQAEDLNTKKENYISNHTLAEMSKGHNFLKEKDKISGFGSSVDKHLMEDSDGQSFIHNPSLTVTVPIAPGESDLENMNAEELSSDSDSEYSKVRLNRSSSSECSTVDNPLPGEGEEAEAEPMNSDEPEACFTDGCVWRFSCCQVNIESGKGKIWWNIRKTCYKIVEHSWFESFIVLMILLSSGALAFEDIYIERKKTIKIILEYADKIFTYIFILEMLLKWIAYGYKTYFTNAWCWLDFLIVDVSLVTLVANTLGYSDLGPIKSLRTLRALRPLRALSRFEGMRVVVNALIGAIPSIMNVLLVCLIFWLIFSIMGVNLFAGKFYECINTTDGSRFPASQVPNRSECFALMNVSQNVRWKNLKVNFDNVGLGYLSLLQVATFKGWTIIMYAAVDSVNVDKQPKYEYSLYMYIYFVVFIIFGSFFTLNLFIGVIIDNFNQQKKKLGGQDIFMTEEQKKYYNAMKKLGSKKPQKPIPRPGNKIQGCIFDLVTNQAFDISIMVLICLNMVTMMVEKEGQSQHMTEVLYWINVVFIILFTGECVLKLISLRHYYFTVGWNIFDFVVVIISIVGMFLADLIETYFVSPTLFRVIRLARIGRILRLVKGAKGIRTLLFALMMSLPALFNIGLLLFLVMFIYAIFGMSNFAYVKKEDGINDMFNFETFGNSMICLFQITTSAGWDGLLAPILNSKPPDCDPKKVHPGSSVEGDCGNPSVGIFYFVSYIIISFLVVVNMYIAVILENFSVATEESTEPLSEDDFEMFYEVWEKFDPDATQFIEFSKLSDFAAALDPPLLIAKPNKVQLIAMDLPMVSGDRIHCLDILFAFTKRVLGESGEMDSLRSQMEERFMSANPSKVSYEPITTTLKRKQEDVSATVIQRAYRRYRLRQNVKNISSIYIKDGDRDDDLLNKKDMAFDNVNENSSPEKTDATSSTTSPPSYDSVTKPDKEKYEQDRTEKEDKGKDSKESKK
row,IC50 [µM],SMILES
1,24.5,"Cc1nn(Cc2ccccc2)cc1-c1ccccc1Oc1ccc(S(=O)(=O)Nc2ncns2)cc1F [Example 252, 4-(2-(1-benzyl-3-methyl-1H-pyrazol-4-yl)phenoxy)-3-fluoro-N-(1,2,4-thiadiazol-5-yl)benzenesulfonamide]"
2,19.2,"N#Cc1cc(S(=O)(=O)Nc2ncc[nH]2)ccc1Oc1ccccc1-c1ccccc1 [Example 117, 4-(biphenyl-2-yloxy)-3-cyano-N-1H-imidazol-2-ylbenzenesulfonamide]"
3,0.73,"N#Cc1cc(S(=O)(=O)Nc2ncc(Cl)s2)ccc1Oc1ccccc1Oc1ccncc1 [Example 135, N-(5-chloro-1,3-thiazol-2-yl)-3-cyano-4-[2-(pyridin-4-yloxy)phenoxy]benzenesulfonamide]"
4,30.9,"Cc1cccc(-c2cccc(OC(F)(F)F)c2)c1Oc1ccc(S(=O)(=O)Nc2ncns2)cc1C#N [Example 37, 3-cyano-4-{[3-methyl-3′-(trifluoromethoxy)biphenyl-2-yl]oxy}-N-1,2,4-thiadiazol-5-ylbenzenesulfonamide]"
5,12.5,"Cn1nccc1-c1cc(Cl)cc(Cl)c1Oc1ccc(S(=O)(=O)Nc2ncns2)cc1C#N [Example 71, 3-cyano-4-[2,4-dichloro-6-(1-methyl-1H-pyrazol-5-yl)phenoxy]-N-1,2,4-thiadiazol-5-ylbenzenesulfonamide]"
6,0.22,"Cc1cc(S(=O)(=O)Nc2ncns2)ccc1Oc1ccccc1-c1ccccc1 [Example 256, 4-(biphenyl-2-yloxy)-3-methyl-N-1,2,4-thiadiazol-5-ylbenzenesulfonamide]"
7,0.33,"COc1ccc(-c2ccccc2Oc2ccc(S(=O)(=O)Nc3ncns3)cc2C#N)cc1 [Example 51, 3-cyano-4-[(4′-methoxybiphenyl-2-yl)oxy]-N-1,2,4-thiadiazol-5-ylbenzenesulfonamide]"
8,17.7,"O=S(=O)(Nc1nccs1)c1ccc(Oc2cccc(OCc3ccccc3)c2)c(F)c1 [Example 119, 4-[3-(benzyloxy)phenoxy]-3-fluoro-N-1,3-thiazol-2-ylbenzenesulfonamide]"
9,2.47,"CC(C)(C)n1nccc1-c1c(Cl)cccc1Oc1ccc(S(=O)(=O)Nc2nccs2)cc1C#N [Example 198, 4-[2-(2-tert-butyl-2H-pyrazol-3-yl)-3-chloro-phenoxy]-3-cyano-N-thiazol-2-yl-benzenesulfonamide]"
10,>10,"N#Cc1cc(S(=O)(=O)Nc2ncco2)ccc1Oc1ccccc1-c1ccccc1 [Example 95, 4-(biphenyl-2-yloxy)-3-cyano-N-1,3-oxazol-2-ylbenzenesulfonamide]"
11,2.38,"O=S(=O)(Nc1ncns1)c1cc(F)c(Oc2ccccc2-c2ccccc2)c(F)c1 [Example 264, 4-(biphenyl-2-yloxy)-3,5-difluoro-N-1,2,4-thiadiazol-5-ylbenzenesulfonamide]"

# Same assay, conditions: estimated IC50; hSCN9A HEK cells, PatchXpress platform; Examples 283-814
row,IC50 [µM],SMILES
1,0.034,"Cc1nsc(NS(=O)(=O)c2cc(Cl)c(Oc3ccc(Cl)cc3-c3ccnn3C)cc2F)n1 [Example 294, 5-chloro-4-[4-chloro-2-(1-methyl-1H-pyrazol-5-yl)phenoxy]-2-fluoro-N-(3-methyl-1,2,4-thiadiazol-5-yl)benzenesulfonamide]"
2,1.9,"Cc1nsc(NS(=O)(=O)c2ccc(Oc3ccc(Cl)cc3-c3ccnn3C)c(F)c2)n1 [Example 515, 4-[4-chloro-2-(1-methyl-1H-pyrazol-5-yl)phenoxy]-3-fluoro-N-(3-methyl-1,2,4-thiadiazol-5-yl)benzenesulfonamide]"
3,0.1,"O=S(=O)(Nc1ncns1)c1cc(F)c(Oc2ccc(C(F)(F)F)cc2-c2cnccn2)cc1F [Example 632, 2,5-difluoro-4-[2-pyrazin-2-yl-4-(trifluoromethyl)phenoxy]-N-1,2,4-thiadiazol-5-ylbenzenesulfonamide]"
4,24,"N#Cc1cc(S(=O)(=O)Nc2ccc(C(F)(F)F)cn2)ccc1Oc1ccccc1-c1ccccc1 [Example 770, 4-(biphenyl-2-yloxy)-3-cyano-N-[5-(trifluoromethyl)pyridin-2-yl]benzenesulfonamide]"
5,0.025,"CCn1nc(C(F)(F)F)cc1-c1ccc(Oc2ccc(S(=O)(=O)Nc3ncc(F)s3)cc2C#N)c(F)c1 [Example 537, 3-cyano-4-{4-[1-ethyl-3-(trifluoromethyl)-1H-pyrazol-5-yl]-2-fluorophenoxy}-N-(5-fluoro-1,3-thiazol-2-yl)benzenesulfonamide]"
6,0.39,"N#Cc1cc(S(=O)(=O)Nc2nccs2)ccc1Oc1ccc(Cl)cc1CN1CCC(O)C1 (stereo not drawn) [Example 357, 4-{4-chloro-2-[(3-hydroxypyrrolidin-1-yl)methyl]phenoxy}-3-cyano-N-1,3-thiazol-2-ylbenzenesulfonamide]"
7,1.6,"N#Cc1cc(S(=O)(=O)Nc2nccs2)ccc1Oc1ccc(Cl)cc1-n1cnnn1 [Example 416, 4-(4-chloro-2-(1H-tetrazol-1-yl)phenoxy)-3-cyano-N-(thiazol-2-yl)benzenesulfonamide]"
8,>1,"COc1cccc(-c2ccc(Oc3ccc(S(=O)(=O)Nc4nccs4)cc3C#N)cc2)n1 [Example 451, 3-cyano-4-[4-(6-methoxypyridin-2-yl)phenoxy]-N-1,3-thiazol-2-ylbenzenesulfonamide]"
9,0.0084,"N#Cc1cc(S(=O)(=O)Nc2ncns2)ccc1Oc1ccc(Cl)cc1-c1cccc(CN)c1 [Example 511, 4-{[3′-(aminomethyl)-5-chlorobiphenyl-2-yl]oxy}-3-cyano-N-1,2,4-thiadiazol-5-ylbenzenesulfonamide]"
10,0.37,"Cn1nccc1-c1cc(F)ccc1Oc1c(F)cc(S(=O)(=O)Nc2ncns2)cc1C#N [Example 675, 3-cyano-5-fluoro-4-[4-fluoro-2-(1-methyl-1H-pyrazol-5-yl)phenoxy]-N-1,2,4-thiadiazol-5-ylbenzenesulfonamide]"
11,2,"N#Cc1cc(S(=O)(=O)Nc2nccs2)ccc1Oc1cccc(-c2cccc(C(F)(F)F)n2)c1 [Example 448, 3-cyano-N-1,3-thiazol-2-yl-4-{3-[6-(trifluoromethyl)pyridin-2-yl]phenoxy}benzenesulfonamide]"
12,>3,"CCc1nnc(C)n1-c1ccc(Oc2ccc(S(=O)(=O)Nc3ccc(F)cn3)cc2C#N)cc1 [Example 568, 3-cyano-4-[4-(3-ethyl-5-methyl-4H-1,2,4-triazol-4-yl)phenoxy]-N-(5-fluoropyridin-2-yl)benzenesulfonamide]"
13,0.011,"Cn1nccc1-c1ccc(I)cc1Oc1ccc(S(=O)(=O)Nc2ncns2)cc1C#N [Example 507, 3-cyano-4-[5-iodo-2-(1-methyl-1H-pyrazol-5-yl)phenoxy]-N-1,2,4-thiadiazol-5-ylbenzenesulfonamide]"
14,0.22,"CC(C)c1cc(-n2cc(Cl)cn2)ccc1Oc1ccc(S(=O)(=O)Nc2nccs2)cc1C#N [Example 353, 4-[4-(4-chloro-1H-pyrazol-1-yl)-2-isopropylphenoxy]-3-cyano-N-1,3-thiazol-2-ylbenzenesulfonamide]"
15,0.013,"N#Cc1cc(S(=O)(=O)Nc2ncns2)ccc1Oc1cc(Cl)c(F)cc1-c1ccn[nH]1 [Example 751, 4-[5-chloro-4-fluoro-2-(1H-pyrazol-5-yl)phenoxy]-3-cyano-N-1,2,4-thiadiazol-5-ylbenzenesulfonamide]"
16,2.3,"N#Cc1cc(S(=O)(=O)Nc2nccs2)ccc1Oc1ccc(Cl)c(-c2ccn[nH]2)c1 [Example 446, 4-[4-chloro-3-(1H-pyrazol-5-yl)phenoxy]-3-cyano-N-1,3-thiazol-2-ylbenzenesulfonamide]"
17,0.088,"N#Cc1cc(S(=O)(=O)Nc2nccs2)ccc1Oc1ccc(Cl)cc1-c1[nH]ncc1F [Example 710, 4-[4-chloro-2-(4-fluoro-1H-pyrazol-5-yl)phenoxy]-3-cyano-N-1,3-thiazol-2-ylbenzenesulfonamide]"
18,0.47,"N#Cc1cc(S(=O)(=O)Nc2nccs2)ccc1Oc1cccc(-c2ccccc2)c1 [Example 778, 4-(biphenyl-3-yloxy)-3-cyano-N-1,3-thiazol-2-ylbenzenesulfonamide]"
19,0.43,"CC(C)(C)n1nc(C(F)(F)F)cc1-c1ccc(Oc2ccc(S(=O)(=O)Nc3nccs3)c(F)c2)cc1 [Example 303, 4-{4-[1-tert-Butyl-3-(trifluoromethyl)-1H-pyrazol-5-yl]phenoxy}-2-fluoro-N-1,3-thiazol-2-ylbenzenesulfonamide]"
20,>3,"CC(C)Oc1cc(-c2cc(F)ccc2Oc2ccc(S(=O)(=O)Nc3cscn3)cc2C#N)n(C)n1 [Example 396, 3-cyano-4-[4-fluoro-2-(3-isopropoxy-1-methyl-1H-pyrazol-5-yl)phenoxy]-N-1,3-thiazol-4-ylbenzenesulfonamide]"

# Same assay, conditions: estimated IC50; hSCN9A HEK cells, PatchXpress platform; Examples 815-1040
row,IC50 [µM],SMILES
1,0.004,"CN1CC(n2nccc2-c2cc(C(F)(F)F)ccc2Oc2cc(F)c(S(=O)(=O)Nc3cscn3)cc2F)C1 [Example 1023, 2,5-Difluoro-4-{2-[1-(1-methylazetidin-3-yl)-1H-pyrazol-5-yl]-4-(trifluoromethyl)phenoxy}-N-1,3-thiazol-4-ylbenzenesulfonamide]"
2,0.04,"N#Cc1cc(S(=O)(=O)Nc2ncns2)ccc1Oc1ccc(Cl)cc1C1CCOCC1 [Example 836, 4-[4-chloro-2-(tetrahydro-2H-pyran-4-yl)phenoxy]-3-cyano-N-1,2,4-thiadiazol-5-ylbenzenesulfonamide]"
3,0.014,"O=S1(=O)CCC(n2nccc2-c2cc(Cl)ccc2Oc2cc(F)c(S(=O)(=O)Nc3ncns3)cc2F)C1 (stereo not drawn) [Example 866, 4-{4-chloro-2-[1-(1,1-dioxidotetrahydro-3-thienyl)-1H-pyrazol-5-yl]phenoxy}-2,5-difluoro-N-1,2,4-thiadiazol-5-ylbenzenesulfonamide]"
4,3.9,"Cn1nccc1-c1cc(Cl)ccc1Oc1ccc(S(=O)(=O)Nc2cnsn2)cc1C#N [Example 921, 4-[4-chloro-2-(1-methyl-1H-pyrazol-5-yl)phenoxy]-3-cyano-N-1,2,5-thiadiazol-3-ylbenzenesulfonamide]"
5,0.66,"N#Cc1ccc(Oc2cc(F)c(S(=O)(=O)Nc3nncs3)cc2Cl)c(-c2ccnnc2)c1 [Example 925, 5-chloro-4-(4-cyano-2-pyridazin-4-ylphenoxy)-2-fluoro-N-1,3,4-thiadiazol-2-ylbenzenesulfonamide]"

# — US8541588B2, “Sulfonamide derivatives” (Pfizer Limited, priority 2009, dated 2013)
